Laboratory results taken from patent US20110280940A1, “Di-Vanilloyl And Tri-Vanilloyl Derivatives For Use In Anti-Cancer Therapy” (priority 2008, published 2011).
Where two headings read alike, the source gives them in different places.

How the values were obtained:
U373 glioblastoma cells = assay: MTT colorimetric assay, overall cell growth, U373; type: cell-based, human; conditions: 72 hours of incubation, read-out: In Vitro IC50 Growth Inhibitory Values, U373
Source text: (§1) The amount of formazan obtained at the end of the experiment, measured by means of a spectrophotometer, is directly proportional to the number of living cells. Optical density determination thus enabled a quantitative measurement of the effect of the investigated compounds as compared to the control condition (untreated cells) and/or to other reference compounds. Eleven human cancer cell lines and one mouse melanoma cell-line (B16F10) described in Table 2 were used in the following MTT tests. These cancer cell lines cover seven histological cancer types including prostate (PC3), glioma (Hs683, T98G, U373, melanoma (VM21, VM28), non-small-cell-lung (A549), breast (MCF-7), colon (LoVo) and oesophageal (OE21, OE33) cancers. […] Each cell line was seeded in its appropriate culture medium. The detailed experimental procedure was the following: after a 24-hour period of incubation at 37° C., the culture medium was replaced by 100 μl of fresh medium in which the tested compound was previously dissolved, at the following molar concentrations: 10^-8 […] and 10^-4 M. Each experiment was performed in sestuplicates (6 times). After 72 hours of incubation at 37° C. with (experimental conditions) or without (control condition) the compound to be tested, the medium was replaced by 100 μl MTT dissolved in RPMI (1640 without phenol red) at a concentration of 0.5 or 1 mg/ml. The micro-wells were subsequently incubated during 3 hours and a half at 37° C. and centrifuged at 1300 rpm during 10 minutes. MTT was removed and formazan crystals formed were dissolved in 100 μl DMSO. The micro-wells were shaken for 5 minutes and read on a spectrophotometer at wavelengths of 570 nm (maximal formazan absorbance). For each experimental condition, the mean optical density was calculated, allowing the determination of the percentage of remaining living cells in comparison to the control. […] The origin of all the cell lines we used, along with their biological characteristics, and the validation procedures of the MTT colorimetric assay as employed here are fully detailed in Van Quaquebeke et al., 2005, J Med Chem 48:849-856; […]

[1] = system: OE21 oesophageal cancer cells; assay: MTT colorimetric assay, overall cell growth, OE21; type: cell-based, human; conditions: 72 hours of incubation, read-out: In Vitro IC50 Growth Inhibitory Values, OE21
Source text: as §1

[2] = system: PC-3 prostate cancer cells; assay: MTT colorimetric assay, overall cell growth, PC-3; type: cell-based, human; conditions: 72 hours of incubation, read-out: In Vitro IC50 Growth Inhibitory Values, PC-3
Source text: as §1

[3] = system: B16F10 melanoma cell-line; assay: MTT colorimetric assay, overall cell growth, B16F10; type: cell-based, mouse; conditions: 72 hours of incubation, read-out: In Vitro IC50 Growth Inhibitory Values, B16F10
Source text: as §1

LoVo colon cancer cells = assay: MTT colorimetric assay, overall cell growth, LoVo; type: cell-based, human; conditions: 72 hours of incubation, read-out: In Vitro IC50 Growth Inhibitory Values, LoVo
Source text: as §1

[4] = system: OE33 oesophageal cancer cells; assay: MTT colorimetric assay, overall cell growth, OE33; type: cell-based, human; conditions: 72 hours of incubation, read-out: In Vitro IC50 Growth Inhibitory Values, OE33
Source text: as §1

T98G glioma cells = assay: MTT colorimetric assay, overall cell growth, T98G; type: cell-based, human; conditions: 72 hours of incubation, read-out: In Vitro IC50 Growth Inhibitory Values, T98G
Source text: as §1

VM21 melanoma cells = assay: MTT colorimetric assay, overall cell growth, VM21; type: cell-based, human; conditions: MTT, 72 hours of incubation, read-out: In Vitro IC50 Growth Inhibitory Values, VM21
Source text: as §1

[5] = system: A549 non-small-cell-lung cancer cells; assay: MTT colorimetric assay, overall cell growth, A549; type: cell-based, human; conditions: 72 hours of incubation, read-out: In Vitro IC50 Growth Inhibitory Values, A549
Source text: as §1

[6] = system: MCF-7 breast cancer cells; assay: MTT colorimetric assay, overall cell growth, MCF-7; type: cell-based, human; conditions: 72 hours of incubation, read-out: In Vitro IC50 Growth Inhibitory Values, MCF-7
Source text: as §1

Hs683 glioma cells = assay: MTT colorimetric assay, overall cell growth, Hs683; type: cell-based, human; conditions: 72 hours of incubation, read-out: In Vitro IC50 Growth Inhibitory Values, Hs683
Source text: as §1

VM48 melanoma cells = assay: MTT colorimetric assay, overall cell growth, VM48; type: cell-based, human; conditions: MTT, 72 hours of incubation, read-out: In Vitro IC50 Growth Inhibitory Values, VM48
[7] = system: Eleven human cancer cell lines; assay: MTT colorimetric assay, across the eleven human cancer cell lines; type: cell-based; conditions: mean ± SEM over the 11 human cancer cell lines, MTT, 72 hours; read-out: In Vitro IC50 Growth Inhibitory Values, m ± SEM
Source text: as §1

Row | Structure (SMILES) | IC50 (U373 glioblastoma cells) [µM] | IC50 [1] [µM] | IC50 [2] [µM] | IC50 [3] [µM] | IC50 (LoVo colon cancer cells) [µM] | IC50 [4] [µM] | IC50 (T98G glioma cells) [µM] | IC50 (VM21 melanoma cells) [µM] | IC50 [5] [µM] | IC50 [6] [µM] | IC50 (Hs683 glioma cells) [µM] | IC50 (VM48 melanoma cells) [µM] | IC50 [7] [µM] | IC50 (VM21 melanoma cells; Homo sapiens) [µM] | IC50 (VM48 melanoma cells; Homo sapiens) [µM] | IC50 ([2]; Homo sapiens) [µM]
1 | COc1cc(C(=O)NC2CCC(NC(=O)c3ccc(O)c(OC)c3)CC2)ccc1O (mixture of isomers) [DLT40, N,N′-cis/trans-cyclohexane-1,4-diyl bis-(4-hydroxy-3-methoxybenzamide)] | > 100 | 81 | 87 | 36 | 78 | > 100 | > 100 | > 100 | > 100 | 80 | 95 | 98 | > 100 |  |  | 
2 | COc1cc(C(=O)O[C@H]2CCCCC[C@@H]2OC(=O)c2ccc(O)c(OC)c2)ccc1O (relative stereo) [DLT22, S,S-trans-cycloheptane-1,2-diyl bis-(4-hydroxy-3-methoxybenzoate)] | 54 | 49 | 88 | 10 | 44 | 55 | 24 | 51 | 46 | 69 | 44 | 50 | 52 |  |  | 
3 | O=C(O[C@@H]1CCCC[C@H]1OC(=O)c1ccc(O)c(Cl)c1)c1ccc(O)c(Cl)c1 (relative stereo) [DLT30, R,R-trans-cyclohexane-1,2-diyl bis-(4-hydroxy-3-chlorobenzoate)] | 31 | 41 | 44 | 1 | 26 | 34 | 11 | 53 | 18 | 21 | 10 | 58 | 32 |  |  | 
4 | COc1cc(C(=O)O[C@H]2CCC[C@@H]2OC(=O)c2ccc(O)c(OC)c2)ccc1O (stereo in doubt) [DLT15, S,S-trans-cyclopentane-1,2-diyl bis-(4-hydroxy-3-methoxybenzoate)] | 30 | 28 | 26 | 6 | 28 | 28 | 30 | 35 | 30 | 23 | 25 | 26 | 28 |  |  | 
5 | COc1cc(C(=O)O[C@@H]2CCC[C@H]2OC(=O)c2ccc(O)c(OC)c2)ccc1O (stereo in doubt) [DLT16, R,R-trans-cyclopentane-1,2-diyl bis-(4-hydroxy-3-methoxybenzoate)] | 31 | 27 | 25 | 4 | 29 | 28 | 32 | 26 | 21 | 25 | 22 | 29 | 27 |  |  | 
6 | COc1cc(C(=O)O[C@H]2CC[C@H](OC(=O)c3ccc(O)c(OC)c3)C2)ccc1O (stereo in doubt) [DLT18, S,S-trans-cyclopentane-1,3-diyl bis-(4-hydroxy-3-methoxybenzoate)] | > 100 | 53 | 43 | 30 | 41 | 64 | > 100 | > 100 | 43 | 44 | 46 | 59 | > 100 |  |  | 
7 | COc1cc(C(=O)O[C@@H]2CC[C@@H](OC(=O)c3ccc(O)c(OC)c3)C2)ccc1O (stereo in doubt) [DLT19, R,R-trans-cyclopentane-1,3-diyl bis-(4-hydroxy-3-methoxybenzoate)] | 35 | 34 | 42 | 26 | 18 | 36 | 31 | 37 | 32 | 25 | 30 | 53 | 34 |  |  | 
8 | O=C(O[C@H]1CCCC[C@@H]1OC(=O)c1cc(O)c(O)c(O)c1)c1cc(O)c(O)c(O)c1 (stereo in doubt) [DLT33, S,S-trans-cyclohexane 1,2-diyl bis-(3,4,5-trihydroxybenzoate)] | 35 | 43 | 44 | 22 | 43 | 66 | 38 | 38 | 30 | 58 | 32 | 51 | 43 |  |  | 
9 | O=C(O[C@@H]1CCCC[C@H]1OC(=O)c1cc(O)c(O)c(O)c1)c1cc(O)c(O)c(O)c1 (stereo in doubt) [DLT34, R,R-trans-cyclohexane 1,2-diyl bis-(3,4,5-trihydroxybenzoate)] | 37 | 37 | 68 | 0.3 | 34 | 45 | 31 | 91 | 32 | 28 | 24 | 28 | 41 |  |  | 
10 | COc1cc(C(=O)OCc2ccccc2COC(=O)c2ccc(O)c(OC)c2)ccc1O [DLT24, [2-[(4-hydroxy-3-methoxy-benzoyl)oxymethyl]phenyl]methyl 4-hydroxy-3-methoxy-benzoate] |  |  |  |  |  |  |  |  |  |  |  |  | 53 ± 2 | 48 | 58 | 
11 | COc1cc(C(=O)OCc2cccc(COC(=O)c3ccc(O)c(OC)c3)c2)ccc1O [DLT25, [3-[(4-hydroxy-3-methoxy-benzoyl)oxymethyl]phenyl]methyl 4-hydroxy-3-methoxy-benzoate] |  |  |  |  |  |  |  |  |  |  |  |  | 52 ± 5 | 81 | 51 | 
12 | COc1ccc(C(=O)OCCCCCCOC(=O)c2ccc(OC)c(OC)c2)cc1OC [DLT26, 6-(3,4-dimethoxybenzoyl)oxyhexyl 3,4-dimethoxybenzoate] |  |  |  |  |  |  |  |  |  |  |  |  | > 100 | > 100 | > 100 | 
13 | COc1cc(C(=O)OC/C=C/COC(=O)c2ccc(O)c(OC)c2)ccc1O [DLT27, 1,4-oxybut-2-enyl-bis(4-hydroxy-3-methoxybenzoate)] |  |  |  |  |  |  |  |  |  |  |  |  | > 100 | > 100 | > 100 | > 100
14 | COc1cc(C(=O)OCC#CCOC(=O)c2ccc(O)c(OC)c2)ccc1O [DLT28, 1,4-oxybut-2-ynyl bis(4-hydroxy-3-methoxybenzoate)] |  |  |  |  |  |  |  |  |  |  |  |  | 50 ± 4 | 42 | 60 | 
15 | COc1ccc(C(=O)OCCCCCCOC(=O)c2ccc(OC)c(O)c2)cc1O [DLT29, 6-(3-hydroxy-4-methoxy-benzoyl)oxyhexyl 3-hydroxy-4-methoxy-benzoate] |  |  |  |  |  |  |  |  |  |  |  |  | > 100 | 74 | 82 | 
